Assay results reported in paper PMC3446968 (PLoS ONE, 2012).
Where two headings read alike, the source gives them in different places. One block for each molecule: values may come before it. No end group written: not given here.

Key:
[1] = system: Sirt3; conditions: read-out: KM apparent affinity for cosubstrate; cited from earlier work
[2] = molecular target: T1, human Sirt3 (Homo sapiens, UniProt Q9NTG7); assay: Binding analysis by microscale thermophoresis, Sirt3
T1 construct: human Sirt3 (residues 114-380); 6x His tag with TEV protease cleavage site (N); made in house; host or cells: E. coli BL21DE3 Rosetta 2
T1 sequence (Q9NTG7 114-380): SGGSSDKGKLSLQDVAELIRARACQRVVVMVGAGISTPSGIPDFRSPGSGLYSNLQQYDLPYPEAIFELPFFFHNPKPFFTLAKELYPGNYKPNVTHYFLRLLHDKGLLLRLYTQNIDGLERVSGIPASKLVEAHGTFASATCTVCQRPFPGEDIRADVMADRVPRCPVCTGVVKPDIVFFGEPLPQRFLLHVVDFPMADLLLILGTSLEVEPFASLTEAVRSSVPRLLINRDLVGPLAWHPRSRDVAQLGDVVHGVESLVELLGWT
Procedure: Non-bound dye was removed using a Nap25 column (GE Healthcare). Dissociation constants were determined from microscale thermophoresis using a Monolith NT.115 (NanoTemper Technologies, Munich, Germany). […] Dissociation constants were determined by non-linear fitting in GraFit.

[3] = molecular target: T2, human Sirt5 (Homo sapiens, UniProt Q9NXA8); assay: Binding analysis by microscale thermophoresis, Sirt5
T2 construct: (residues 34- 302); 6x His tag with TEV protease cleavage site (N); made in house; host or cells: E. coli BL21DE3 Rosetta 2
T2 sequence (Q9NXA8 34-302): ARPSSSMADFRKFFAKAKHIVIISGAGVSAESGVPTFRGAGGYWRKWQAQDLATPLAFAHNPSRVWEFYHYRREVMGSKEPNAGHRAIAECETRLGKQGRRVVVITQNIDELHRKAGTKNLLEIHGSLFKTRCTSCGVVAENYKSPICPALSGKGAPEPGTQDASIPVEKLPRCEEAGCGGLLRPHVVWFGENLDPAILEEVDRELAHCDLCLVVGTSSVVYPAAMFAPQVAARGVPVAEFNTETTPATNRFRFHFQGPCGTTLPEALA
Procedure: For labeling, 100 µM Sirtuin were incubated with 200 µM fluorescein isothiocyanate (Thermo Fisher) in 20 mM HEPES pH 7.5, 150 mM NaCl over night at 4°C in the dark. Non-bound dye was removed using a Nap25 column (GE Healthcare). Dissociation constants were determined from microscale thermophoresis using a Monolith NT.115 (NanoTemper Technologies, Munich, Germany). […] Dissociation constants were determined by non-linear fitting in GraFit.

[4] = molecular target: T3, Sirt5Zf (Danio rerio, UniProt Q6DHI5); assay: MS-based peptide deacylation assay, zebrafish Sirt5; format: biochemical; conditions: deacetylation, CPS1 peptide (Fig. S3)
T3 construct: zebrafish Sirt5 (residues 30- 298); 6x His tag with TEV protease cleavage site (N); made in house; host or cells: E. coli BL21DE3 Rosetta 2
T3 sequence (Q6DHI5 30-298): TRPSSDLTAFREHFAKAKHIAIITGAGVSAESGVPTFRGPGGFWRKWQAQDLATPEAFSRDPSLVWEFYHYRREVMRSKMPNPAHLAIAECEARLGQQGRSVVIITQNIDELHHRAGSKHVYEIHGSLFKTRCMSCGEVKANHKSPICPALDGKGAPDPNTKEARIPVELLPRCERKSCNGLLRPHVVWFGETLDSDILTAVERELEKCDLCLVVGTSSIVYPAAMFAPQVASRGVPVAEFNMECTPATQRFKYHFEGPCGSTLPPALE
Procedure: (§1) Samples were diluted with 0.1% formic acid and filtered using 10 kDa cutoff concentrators. Samples were analyzed on an LC-ESI-MS system consisting of a Prominence HPLC (Shimadzu, Duisburg, Germany) with Sil20AC autosampler connected to an LTQ XL mass spectrometer (Thermo Fisher, Bremen, Germany). […] Extracted ion chromatograms (XICs) with mass windows of ±2 m/z were generated for the acylated and deacylated peptide, and peak areas were determined using automatic peak area detection of the Xcalibur Qual Browser module and further analyzed with Excel (Microsoft, Seattle, USA) or GraFit (Erithacus Software, West Sussex, UK).

[5] = molecular target: T4, Sir2Af2 (Archaeoglobus fulgidus, UniProt O30124); assay: MS-based peptide deacylation assay, Sir2Af2 wt; format: biochemical; conditions: for IC50: IC50 nicotinamide inhibition; for normalized desuccinylation [%]: succinylated Prx1-Lys197
T4 construct: host or cells: E. coli BL21DE3 Rosetta2
T4 sequence (O30124 1-253): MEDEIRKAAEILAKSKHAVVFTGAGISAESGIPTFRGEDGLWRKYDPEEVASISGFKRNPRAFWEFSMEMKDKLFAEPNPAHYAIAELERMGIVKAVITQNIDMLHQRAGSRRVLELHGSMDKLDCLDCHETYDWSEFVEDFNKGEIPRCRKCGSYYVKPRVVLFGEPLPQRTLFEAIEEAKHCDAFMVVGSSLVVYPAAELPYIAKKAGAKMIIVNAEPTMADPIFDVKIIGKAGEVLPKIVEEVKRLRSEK
Procedure: as §1

[6] = molecular target: Sir2Af2-Met70Arg (Archaeoglobus fulgidus, UniProt O30124, M70R); assay: MS-based peptide deacylation assay, Sir2Af2-Met70Arg variant; conditions: for IC50: IC50 nicotinamide inhibition
Procedure: as §1

[7] = molecular target: T5, human Sirt5 (human, UniProt Q9NXA8 37-310, labelled with fluorescein isothiocyanate (sites not given)); assay: MST; ligand (peptide) titrated to 100 nM fluorescein-labelled Sirtuin; mixtures preincubated 30 min at room temperature; Monolith NT.115; non-linear fitting in GraFit; conditions: both partners purified
T5 construct: Sirt5, human; a 'gene fragment' cloned into pET151/D-Topo
T5 sequence (looked up): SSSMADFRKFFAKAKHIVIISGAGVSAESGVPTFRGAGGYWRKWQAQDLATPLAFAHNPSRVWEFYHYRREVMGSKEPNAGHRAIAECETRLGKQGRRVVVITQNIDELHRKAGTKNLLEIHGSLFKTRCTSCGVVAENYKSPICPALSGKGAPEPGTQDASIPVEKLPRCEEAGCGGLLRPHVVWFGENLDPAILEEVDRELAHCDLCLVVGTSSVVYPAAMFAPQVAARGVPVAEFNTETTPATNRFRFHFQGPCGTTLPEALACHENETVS

[8] = 25 µM substrate peptide, read-out: Kd for NAD^+ under peptide saturation
[9] = in presence of 0.5 mM nicotinamide, read-out: Kd(NAD^+)
[10] = no nicotinamide, no peptide, read-out: Kd(NAD^+)
[11] = read-out: normalized deacetylation [%]

Chain of Sir2Af2-Met70Arg (O30124 whole entry M70R): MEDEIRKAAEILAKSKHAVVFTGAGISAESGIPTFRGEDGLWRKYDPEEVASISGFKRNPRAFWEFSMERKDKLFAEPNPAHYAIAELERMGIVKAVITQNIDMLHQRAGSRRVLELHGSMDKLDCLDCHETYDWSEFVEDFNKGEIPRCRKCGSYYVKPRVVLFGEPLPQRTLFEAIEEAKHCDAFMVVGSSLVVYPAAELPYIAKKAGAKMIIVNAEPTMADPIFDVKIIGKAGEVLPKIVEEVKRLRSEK

Molecule: NC(=O)c1cccnc1 [nicotinamide]
- IC50 [4]: 6900 ± 500 µM
- IC50 ([5]; acetyl-CPS1 substrate): 5800 ± 1600 µM
- IC50 ([5]; acetyl-Prx1 substrate): 1300 ± 300 µM
- IC50 ([5]; deacetylation, p53 peptide (Fig. S3)): 2100 ± 150 µM
- IC50 ([5]; succinyl-CPS1 substrate): 6600 ± 500 µM
- IC50 ([5]; succinyl-Prx1 substrate): > 10000 µM
- remaining activity at 1 µM ([5]; NAM 1 µM, acetylated Prx1-Lys197, wt, read-out: normalized deacetylation [%]): 88.7%
- normalized desuccinylation [%] ([5]; NAM 1 µM, wt): 100.0%
- remaining activity at 10 µM ([5]; NAM 10 µM, acetylated Prx1-Lys197, wt, read-out: normalized deacetylation [%]): 101%
- normalized desuccinylation [%] ([5]; NAM 10 µM, wt): 96.1%
- remaining activity at 100 µM ([5]; NAM 100 µM, acetylated Prx1-Lys197, wt, read-out: normalized deacetylation [%]): 93%
- normalized desuccinylation [%] ([5]; NAM 100 µM, wt): 95.7%
- remaining activity at 500 µM ([5]; NAM 500 µM, acetylated Prx1-Lys197, wt, read-out: normalized deacetylation [%]): 65.4%
- remaining activity at 1000 µM ([5]; NAM 1000 µM, acetylated Prx1-Lys197, wt, read-out: normalized deacetylation [%]): 49.8%
- normalized desuccinylation [%] ([5]; NAM 1000 µM, wt): 88.3%
- remaining activity at 5000 µM ([5]; NAM 5000 µM, acetylated Prx1-Lys197, wt, read-out: normalized deacetylation [%]): 30.4%
- normalized desuccinylation [%] ([5]; NAM 5000 µM, wt): 78.1%
- normalized desuccinylation [%] ([5]; NAM 10000 µM, wt): 69.1%
- IC50 ([6]; deacetylase activity, acetylated Prx1-Lys197): > 10000 µM
- IC50 ([6]; desuccinylase activity, succinylated Prx1-Lys197): 2800 ± 900 µM
- remaining activity at 1 µM [6, 11]: 100%
- remaining activity at 10 µM [6, 11]: 98.1%
- remaining activity at 100 µM [6, 11]: 96.1%
- remaining activity at 500 µM [6, 11]: 69.7%
- remaining activity at 1000 µM [6, 11]: 86.4%
- remaining activity at 5000 µM [6, 11]: 71.4%
- remaining activity at 10000 µM [6, 11]: 52.6%

B2: ACS2-Lys642 peptide (TRSG(acK)VMR) (peptide)
peptide: TRSGK(Ac)VMR
notes: acetyl-CoA synthetase 2 (ACS2), stretch around the acetylation site Lys642; also called ACS2 peptide; source: synthetic peptide, bought: GL Biochem (Shanghai)
- Kd [7]: 2.1 ± 0.7 µM

Continued, in another order:

- Kd [2, 8]: 260 ± 150 µM
- Kd [2, 9]: 830 ± 240 µM
- Kd [2, 10]: 710 ± 230 µM
- Kd [3, 8]: 200 ± 70 µM
- Kd [3, 9]: 920 ± 230 µM
- Kd [3, 10]: 980 ± 280 µM
Molecule: NC(=O)c1ccc[n+]([C@@H]2O[C@H](COP(=O)([O-])OP(=O)(O)OC[C@H]3O[C@@H](n4cnc5c(N)ncnc54)[C@H](O)[C@@H]3O)[C@@H](O)[C@H]2O)c1 [NAD^+]
- Km [1]: 100 to 600 µM

- Kd [7]: 2.3 ± 1.5 µM
B1: CPS1-Lys527 peptide (FKRGVL(acK)EYGVKV) (peptide)
peptide: FKRGVLK(Ac)EYGVKV
notes: carbamoyl phosphate synthetase 1 (CPS1), stretch around the acetylation site Lys527; also called CPS1 peptide; source: synthetic peptide, bought: GL Biochem (Shanghai)
